Results from patent US6406679B1, “Use of HL-60-related lectins in drug delivery and detection of lectin-expressing cells” (Incyte Pharmaceuticals, Inc., priority 1992, dated 2002).
Blank lines part the entries; values can stand above or below the molecule they belong to.

Assays:
[1] = biological target: T1, 14 kD lectins (HL-60 cells, placenta, recombinant E. coli) (Homo sapiens, UniProt P09382); experiment: Inhibition by competing sugars of lectin-induced agglutination of trypsinized rabbit erythrocytes; format: biochemical; settings: FIG. 5
T1 construct: the N-terminal methionine of the HL-60 lectin appears to be cleaved, and the remaining protein can be acetylated; secretion signal (only the E. coli-made preparation); made in house; host or cells: three preparations tested side by side: purified from HL-60 cells, purified from human placenta tissue, recombinant from E. coli (secretion signal)
Text: (§1) Biological activity of the inventive 14 kD lectins 1) isolated from HL-60 cells, 2) isolated from placenta tissue or 3) prepared recombinantly from E. coli cells transfected with lectin cDNA operably linked to a secretion signal was ascertained by agglutination of trypsinized rabbit erythrocytes.

[2] = system: trypsinized rabbit erythrocytes; experiment: Agglutination of trypsinized rabbit erythrocytes; format: cell-based; settings: control, FIG. 5
Text: as §1

[3] = biological target: epitope recognized by M1 antibody on human blood cells (macrophages) (human); experiment: flow cytometry of human blood cells pretreated with lectin, then stained with fluoresceinated M1 antibody, against untreated control
[4] = biological target: epitope recognized by M3 antibody on human blood cells (macrophages) (human); experiment: flow cytometry of human blood cells pretreated with lectin, then stained with fluoresceinated M3 antibody, against untreated control

T1 sequence (P09382 2-135 limits assumed): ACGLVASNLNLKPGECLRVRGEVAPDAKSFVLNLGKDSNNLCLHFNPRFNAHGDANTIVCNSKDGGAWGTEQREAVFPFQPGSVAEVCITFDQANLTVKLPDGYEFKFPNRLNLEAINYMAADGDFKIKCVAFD

- concentrations inhibiting agglutination of the erythrocytes [1]: greater than 0.31 mM
Molecule: OC[C@H]1O[C@@H](S[C@@H]2O[C@H](CO)[C@H](O)[C@H](O)[C@H]2O)[C@H](O)[C@@H](O)[C@H]1O [Thiodigalactoside, thiodigalactoside]

- concentrations inhibiting agglutination of the erythrocytes [1]: greater than 1.25 mM
Molecule: OC[C@H]1O[C@@H](O[C@H]2[C@H](O)[C@@H](O)[C@H](O)O[C@@H]2CO)[C@H](O)[C@@H](O)[C@H]1O [β-lactose]

Molecule: Concanavalin A
- agglutination end-point [2]: 1.5 µg/mL

- reduction of the percent of positive cells [3]: 33%
- reduction of the percent of positive cells [4]: 26%
Molecule: recombinant 14 kD beta-galactoside-binding soluble lectin (HL-60 / placenta lectin) produced in E. coli (from UniProt P09382 2-135)
